# Reference: patent publication US20260242416A1, “ANTIMICROBIAL PEPTIDES” (priority 2023, published 2026)
# Where a SMILES comes first, the peptide text is derived from it.
# Experiments:
# S. aureus ATCC 29213 = assay type: cell-based, Staphylococcus aureus; conditions: ATCC 29213
# Procedure, shortened: (§1)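 MIC taken as lowest peptide level showing no visible growth after 20-24 h at 37° C. Twofold series 128-0.5 μg/mL in Mueller-Hinton broth, polypropylene plates, final inoculum 2-8×10^5 cfu/mL, per CLSI with cationic-peptide adaptations.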
# [1] = system: Salmonella enterica serovar Enteritidis (human clinical isolate); assay type: cell-based; conditions: serovar Enteritidis (human clinical isolate)
# Procedure, shortened: as §1
# E. coli ATCC 25922 = assay type: cell-based, Escherichia coli; conditions: ATCC 25922
# Procedure, shortened: as §1
# [2] = system: E. coli ATCC 25922, Salmonella Enteritidis, S. aureus ATCC 29213; test: Broth microdilution, panel result (at least one / all strains), Example 2; assay type: cell-based; set-up: key to inhibitory activity (asterisk): *Indicates inhibitory activity; conditions: Table 14; against at least one of E. coli ATCC 25922, Salmonella Enteritidis, S. aureus ATCC 29213
# Protocol: The antimicrobial activity of the putative AMPs was determined by a broth microdilution assay as described by the Clinical and Laboratory Standards Institute, with the published adaptations for testing of cationic peptides. Escherichia coli 25922 and Staphylococcus aureus 29213 isolates were purchased from the American Type Culture Collection (ATCC; Manassas, VA, USA). A human clinical isolate of Salmonella enterica serovar Enteritidis was provided by the BC Centre for Disease Control. Bacteria from stocks stored at −80° C. were streaked onto nonselective Columbia blood agar with 5% sheep blood (Oxoid) and incubated overnight at 37° C. Next, 2-4 colonies were streaked onto a new agar plate to ensure uniform health of colonies used in the broth microdilution assay. Isolated colonies were suspended in MHB and the optical density was measured with a spectrophotometer to create an initial inoculum concentration of approximately 1×10^8 cfu/mL. The inoculum was diluted 1:250 to a final concentration of 2-8×10^5 cfu/mL, which was confirmed by performing a Total Viability Count (TVC). The TVC consisted of plating a 1:1000 dilution of the final inoculum on nonselective media and was also used to confirm the health and purity of the inoculum in each trial.
# Lyophilized 80 μg peptide aliquots synthesized by GenScript (Piscataway, NJ, USA) were resuspended to 1.28 mg/mL with UltraPure water (Thermo Fisher Scientific, Waltham, MA, USA) and serially diluted in polypropylene 96-well microtiter plates (Greiner Bio-One #650261, Kremsmunster, Austria) from 128 down to 0.5 μg/mL. Two columns per plate were reserved for growth and sterility controls. Inoculum was added to the wells containing the peptide and the growth control. Plates were incubated for 20-24 h at 37° C. The minimum inhibitory concentration (MIC) was determined as the lowest peptide concentration where there was no visible bacterial growth.
SMILES,MIC (ug/mL) S. aureus (S. aureus ATCC 29213),MIC (ug/mL) S. Enteritidis [1],MIC (ug/mL) E. coli (E. coli ATCC 25922),inhibitory activity (asterisk) [2]
"CC[C@H](C)[C@H](NC(=O)[C@@H]1CCCN1C(=O)[C@H](CS)NC(=O)[C@H](C)NC(=O)[C@@H](N)Cc1ccccc1)C(=O)NCC(=O)N[C@@H](Cc1ccccc1)C(=O)N[C@@H](Cc1ccccc1)C(=O)N[C@@H](CCCNC(=N)N)C(=O)N[C@@H](CC(C)C)C(=O)N[C@@H](CCCCN)C(=O)N[C@@H](CCCNC(=N)N)C(=O)O [CaCa1, FACPIGFFRLKR] (H-FACPIGFFRLKR-OH; N-terminus and C-terminus assumed)",128/>128/>128 ug/mL,128/>128/>128 ug/mL,128/>128/>128 ug/mL,826.* FACPIGFFRLKR
"CC[C@H](C)[C@H](NC(=O)CNC(=O)[C@H](C)NC(=O)[C@@H](NC(=O)[C@@H](NC(=O)[C@H](CO)NC(=O)[C@H](C)NC(=O)[C@@H](NC(=O)[C@H](CCCCN)NC(=O)[C@H](CCCCN)NC(=O)[C@H](C)NC(=O)[C@@H](NC(=O)[C@H](CC(=O)O)NC(=O)[C@H](CC(C)C)NC(=O)[C@H](Cc1c[nH]c2ccccc12)NC(=O)CN)[C@@H](C)CC)C(C)C)C(C)C)C(C)C)C(=O)N[C@H](C(=O)N[C@@H](CCCCN)C(=O)N[C@@H](CCCNC(=N)N)C(=O)O)C(C)C [LiVe1, GWLDIAKKVASVVAGIVKR] (H-GWLDIAKKVASVVAGIVKR-OH; N-terminus and C-terminus assumed)",16 to 32 µg/mL,32 µg/mL,4 to 8 µg/mL,37.* GWLDIAKKVASVVAGIVKR
CC[C@H](C)[C@H](NC(=O)[C@H](CCCCN)NC(=O)[C@H](CS)NC(=O)[C@H](CCCCN)NC(=O)[C@H](CC(C)C)NC(=O)[C@H](CC(N)=O)NC(=O)[C@H](CC(=O)O)NC(=O)[C@H](CC(C)C)NC(=O)[C@H](CC(C)C)NC(=O)[C@@H](NC(=O)[C@@H](NC(=O)[C@H](C)NC(=O)[C@@H](NC(=O)[C@H](CC(N)=O)NC(=O)[C@H](CCCCN)NC(=O)[C@H](C)NC(=O)[C@@H](NC(=O)[C@H](CC(N)=O)NC(=O)[C@H](CCCCN)NC(=O)[C@H](C)NC(=O)[C@@H](NC(=O)[C@H](CC(=O)O)NC(=O)[C@H](CCSC)NC(=O)[C@H](Cc1ccccc1)NC(=O)CN)[C@@H](C)O)C(C)C)C(C)C)C(C)C)[C@@H](C)O)C(=O)N[C@H](C(=O)N[C@@H](CCCCN)C(=O)N[C@@H](C)C(=O)N[C@@H](CS)C(=O)O)[C@@H](C)O [OdMa13] (H-GFMDTAKNVAKNVAVTLLDNLKCKITKAC-OH; N-terminus and C-terminus assumed),,,,1095.* GFMDTAKNVAKNVAVTLLDNLKCKITKAC
CC[C@H](C)[C@H](NC(=O)CNC(=O)[C@H](CCCNC(=N)N)NC(=O)[C@H](CCCCN)NC(=O)[C@H](CCCCN)NC(=O)[C@H](CCCNC(=N)N)NC(=O)[C@@H]1CCCN1C(=O)[C@@H](NC(=O)[C@H](CCSC)NC(=O)[C@H](CC(C)C)NC(=O)[C@@H](N)CCCCN)[C@@H](C)CC)C(=O)N[C@@H](Cc1ccccc1)C(=O)NCC(=O)NCC(=O)N[C@@H](CC(C)C)C(=O)N[C@@H](CC(C)C)C(=O)N[C@@H](CCCCN)C(=O)N[C@H](C(=O)NCC(=O)N[C@@H](CCCCN)C(=O)N[C@@H](CCCCN)C(=O)N[C@H](C(=O)N[C@@H](C)C(=O)N[C@@H](CS)C(=O)NCC(=O)N[C@@H](CC(C)C)C(=O)N[C@@H](CO)C(=O)NCC(=O)N[C@@H](CC(C)C)C(=O)N[C@@H](CS)C(=O)O)[C@@H](C)CC)C(C)C [OdTo4] (H-KLMIPRKKRGIFGGLLKVGKKIACGLSGLC-OH; N-terminus and C-terminus assumed),,,,190.* KLMIPRKKRGIFGGLLKVGKKIACGLSGLC
CC(C)C[C@H](NC(=O)CN)C(=O)N[C@@H](CC(C)C)C(=O)NCC(=O)N[C@@H](CCCCN)C(=O)N[C@H](C(=O)N[C@@H](CC(C)C)C(=O)NCC(=O)N[C@H](C(=O)NCC(=O)N[C@@H](CCCCN)C(=O)N[C@@H](CCCCN)C(=O)N[C@H](C(=O)N[C@@H](CC(C)C)C(=O)N[C@@H](CS)C(=O)NCC(=O)N[C@H](C(=O)N[C@H](C(=O)NCC(=O)N[C@@H](CCCNC(=N)N)C(=O)N[C@@H](CCC(=O)O)C(=O)N[C@@H](CCCNC(=N)N)C(=O)N[C@@H](CS)C(=O)N[C@@H](CCC(N)=O)C(=O)O)[C@@H](C)O)C(C)C)C(C)C)C(C)C)C(C)C [PeNi5] (H-GLLGKVLGVGKKVLCGVTGRERCQ-OH; N-terminus and C-terminus assumed),,,,359.* GLLGKVLGVGKKVLCGVTGRERCQ
CC[C@H](C)[C@H](NC(=O)[C@@H](N)C(C)C)C(=O)N1CCC[C@H]1C(=O)N[C@@H](Cc1ccccc1)C(=O)N[C@H](C(=O)N[C@@H](C)C(=O)N[C@@H](CO)C(=O)N[C@H](C(=O)N[C@@H](C)C(=O)N[C@@H](C)C(=O)N[C@@H](CCC(=O)O)C(=O)N[C@@H](CCSC)C(=O)N[C@@H](CCSC)C(=O)N[C@@H](Cc1c[nH]cn1)C(=O)N[C@@H](Cc1c[nH]cn1)C(=O)N[C@H](C(=O)N[C@@H](Cc1ccc(O)cc1)C(=O)N[C@@H](CS)C(=O)N[C@@H](C)C(=O)N[C@@H](C)C(=O)N[C@@H](CO)C(=O)N[C@@H](CCCCN)C(=O)N[C@@H](CCCNC(=N)N)C(=O)N[C@@H](CS)C(=O)N[C@@H](CCCCN)C(=O)N[C@@H](CC(N)=O)C(=O)O)C(C)C)C(C)C)C(C)C [PeNi7] (H-VIPFVASVAAEMMHHVYCAASKRCKN-OH; N-terminus and C-terminus assumed),,,,1088.* VIPFVASVAAEMMHHVYCAASKRCKN
CC[C@H](C)[C@H](NC(=O)CN)C(=O)N[C@@H](CC(C)C)C(=O)N[C@@H](CC(C)C)C(=O)N[C@@H](CC(N)=O)C(=O)N[C@H](C(=O)N[C@@H](CC(C)C)C(=O)N[C@@H](CCCCN)C(=O)NCC(=O)N[C@@H](C)C(=O)N[C@@H](C)C(=O)N[C@@H](CCCCN)C(=O)N[C@@H](CC(N)=O)C(=O)N[C@H](C(=O)N[C@@H](C)C(=O)NCC(=O)N[C@H](C(=O)N[C@@H](CC(C)C)C(=O)N[C@@H](CC(C)C)C(=O)N[C@@H](CC(=O)O)C(=O)N[C@@H](CCCCN)C(=O)N[C@@H](CC(C)C)C(=O)N[C@@H](CCCCN)C(=O)N[C@@H](CS)C(=O)N[C@@H](CCCCN)C(=O)N[C@H](C(=O)N[C@H](C(=O)NCC(=O)NCC(=O)N[C@@H](CS)C(=O)O)[C@@H](C)O)[C@@H](C)CC)C(C)C)C(C)C)[C@@H](C)O [PeNi8] (H-GILLNTLKGAAKNVAGVLLDKLKCKITGGC-OH; N-terminus and C-terminus assumed),,,,1097.* GILLNTLKGAAKNVAGVLLDKLKCKITGGC
CC[C@H](C)[C@H](NC(=O)[C@H](CO)NC(=O)[C@@H]1CCCN1C(=O)[C@H](CC(C)C)NC(=O)[C@@H](NC(=O)[C@H](CCCCN)NC(=O)[C@H](C)NC(=O)[C@H](C)NC(=O)[C@H](CC(C)C)NC(=O)CNC(=O)[C@H](C)NC(=O)[C@@H](NC(=O)[C@@H](NC(=O)[C@@H]1CCCN1C(=O)[C@H](CC(C)C)NC(=O)[C@@H](N)Cc1ccccc1)C(C)C)C(C)C)C(C)C)C(=O)N[C@H](C(=O)N[C@@H](CS)C(=O)N[C@@H](C)C(=O)N[C@H](C(=O)N[C@H](C(=O)N[C@@H](CCCCN)C(=O)N[C@@H](CCCCN)C(=O)N[C@@H](CS)C(=O)O)[C@@H](C)O)C(C)C)[C@@H](C)CC [RaCa15] (H-FLPVVAGLAAKVLPSIICAVTKKC-OH; N-terminus and C-terminus assumed),,,,1098.* FLPVVAGLAAKVLPSIICAVTKKC
CC[C@H](C)[C@H](NC(=O)[C@H](CO)NC(=O)[C@@H]1CCCN1C(=O)[C@H](CC(C)C)NC(=O)[C@@H](NC(=O)[C@H](CCCCN)NC(=O)[C@H](C)NC(=O)[C@H](C)NC(=O)[C@H](CC(C)C)NC(=O)CNC(=O)[C@H](C)NC(=O)[C@@H](NC(=O)[C@@H](NC(=O)[C@@H]1CCCN1C(=O)[C@H](CC(C)C)NC(=O)[C@H](Cc1ccccc1)NC(=O)[C@H](CCCNC(=N)N)NC(=O)[C@H](CCC(N)=O)NC(=O)[C@H](CCC(=O)O)NC(=O)[C@@H](N)CCC(=O)O)C(C)C)C(C)C)C(C)C)C(=O)N[C@H](C(=O)N[C@@H](CS)C(=O)N[C@@H](C)C(=O)N[C@H](C(=O)N[C@H](C(=O)N[C@@H](CCCCN)C(=O)N[C@@H](CCCCN)C(=O)N[C@@H](CS)C(=O)O)[C@@H](C)O)C(C)C)[C@@H](C)CC [RaSy2] (H-EEQRFLPVVAGLAAKVLPSIICAVTKKC-OH; N-terminus and C-terminus assumed),,,,673.* EEQRFLPVVAGLAAKVLPSIICAVTKKC
